In PubChem BioAssay (NCI) one finds GI50 and TGI data, which are given here for five compounds.

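Growth conditions: 96-well plates. Treatment: test compound, 48 hours, 5 concentrations. Analysis: linear interpolation between bracketing concentrations; unreached endpoints set to highest concentration. GI50 is the concentration that inhibits growth by half. At the TGI there is no net growth.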

What all share (assay): inhibition of tumour cell growth, NCI panel, 48 h
Assay [1] concerns HOP-92 NSCLC.
Assay [2] has as its system SN12C renal.
Assay [3] has as its system T-47D breast.
Assay [4] concerns CCRF-CEM leukemia.
Assay [5] relates to HOP-62 NSCLC.
Assay [6] deals with ACHN renal.
In assay [7] the test system is HCC-2998 colon.
Assay [8] concerns A498 renal.
In assay [9] the test system is BT-549 breast.
In assay [10] the test system is HCT-116 colon.

`COc1ccc(/C=C2\CN(C(=O)CCN3CCC(=NO)CC3)C/C(=C\c3ccc(OC)cc3)C2=O)cc1`: the GI50 in [1] was 2.34 µM; in assay [2], 2.27 µM; in assay [3], 2.57 µM; in assay [4] it was 3.05 µM; in assay [5], 2.03 µM; in [6] it was 1.95 µM. Also, the GI50 in assay [7] was 1.85 µM; in assay [8], 1.6 µM; in assay [9], 2.17 µM; in assay [10], 1.74 µM. Further, the TGI in assay [1] stood at 9.32 µM; in assay [2] it was 5.92 µM; in assay [3] it was 8.91 µM; in assay [4], 18.9 µM; in [5], 4.59 µM; in assay [6], 4.05 µM. Moreover, the TGI in [7] worked out at 3.51 µM; in assay [8], 3.2 µM; in assay [9] it was 6.08 µM; in [10] it was 3.23 µM.
On to `CC(=O)Oc1ccccc1[C@H]1CC(=O)C[C@H](c2ccccc2OC(C)=O)C12C(=O)c1ccccc1C2=O`, for which the TGI is over 100 µM in [1]; over 100 µM in assay [2]; over 100 µM in assay [3]; over 100 µM in [4]; over 100 µM in [5]; 85.4 µM in [7]. In addition, the TGI was over 100 µM in [8], 84.5 µM in [9] and 88.9 µM in [10].
Turning to `COc1cc(C2CC(c3cccc(Nc4ccncc4)c3)=NN2c2cc(Cl)cc(Cl)c2)cc(OC)c1OC` (stereo not given), the GI50 in [1] was 1.12 µM; in assay [2] it was 1.66 µM; in assay [6], 1.66 µM; in assay [7] it was 1.56 µM; in assay [8] it was 1.27 µM. Further, the TGI in [1] was 2.44 µM; in assay [2], 3.14 µM; in assay [6] it was 3.03 µM; in assay [7], 2.98 µM; in [8], 4.22 µM.
As to `COc1cc2cc(Oc3ccc(NC(=O)Nc4ccc(F)c(C(F)(F)F)c4)cc3)c(C)nc2cc1OCCN1CCCCC1`, the figures for the GI50 in assay [1], in assay [4] and in assay [6] were 1.52 µM, 1.57 µM and 1.65 µM, respectively. Moreover, the TGI in assay [1] is 3.02 µM; in assay [4], 4.01 µM; in assay [6], 3.01 µM.
Take `O=C(c1ccccc1)c1nn(-c2ccc(Cl)cc2)c2nc3nc(-c4ccccc4)cc(=O)n3nc12`: the GI50 in assay [1] was 22.1 µM; in assay [2] it was 24 µM; in [3], 65.9 µM; in [4], 3.58 µM; in [5], 32.3 µM; in [6], 37.4 µM. Besides, the GI50 in [7] was 29.7 µM; in assay [8], 58.8 µM; in assay [9], 26.2 µM; in [10] it was 19.9 µM. Further, the TGI was 74.7 µM in [1]; 59.8 µM in assay [2]; over 100 µM in assay [3]; over 100 µM in assay [4]; over 100 µM in assay [5]; over 100 µM in assay [6]. The TGI is 66.5 µM in assay [7], over 100 µM in assay [8], 62.8 µM in assay [9] and 52.2 µM in assay [10].
